Assay results taken from ChEMBL document CHEMBL1201862, “PubChem BioAssay data set” (2004).
Active and inactive are the calls of the source.

Columns and labels:
[1] = biological target: T1, Microphthalmia-associated transcription factor (Homo sapiens, UniProt O75030); experiment: TRPM1 promoter luciferase signal decrease, dose response, MITF inhibitor project, cell-based, SK-MEL-5, cherry-picked, set 3 (AID 493073); type: functional
T1 sequence (O75030 whole entry): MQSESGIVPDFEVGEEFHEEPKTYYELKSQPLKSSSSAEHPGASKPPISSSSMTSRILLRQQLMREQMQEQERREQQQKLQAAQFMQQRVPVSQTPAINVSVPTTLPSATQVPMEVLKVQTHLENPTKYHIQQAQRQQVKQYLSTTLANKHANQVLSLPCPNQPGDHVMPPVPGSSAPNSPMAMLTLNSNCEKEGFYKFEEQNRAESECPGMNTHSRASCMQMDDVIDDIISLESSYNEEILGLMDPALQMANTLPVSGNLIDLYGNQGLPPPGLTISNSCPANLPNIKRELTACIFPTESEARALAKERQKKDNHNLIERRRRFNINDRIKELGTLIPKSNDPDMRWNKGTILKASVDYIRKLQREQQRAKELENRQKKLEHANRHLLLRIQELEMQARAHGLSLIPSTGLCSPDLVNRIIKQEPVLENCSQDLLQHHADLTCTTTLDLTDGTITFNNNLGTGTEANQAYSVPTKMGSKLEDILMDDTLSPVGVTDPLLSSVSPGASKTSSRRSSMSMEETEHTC

INS1 = experiment: beta cell apoptosis inhibitors, cytokine rescue, dose response, luminescence, retest (AID 449756); type: functional, cell-based; details: Rattus norvegicus;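 note: cell death triggered by IL-1 beta plus TNF-alpha plus IFN-gamma mixture; protective hits raise ATP signal compared with cytokine alone wells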
Paired box protein Pax-8 = Paired box protein Pax-8 (Homo sapiens, UniProt Q06710); experiment: inhibitors of PAX8-driven TPO luciferase reporter, dose response, RMG-I cells, cherry-pick (AID 687027); type: functional, cell-based;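 note: luciferase reporter driven by Pax8 target thyroperoxidase promoter measured by SteadyGlo luminescence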
[2] = biological target: T2, Heat shock factor protein 1 (Mus musculus, UniProt P38532); experiment: inhibition of MG132-induced HSE-luciferase signal, confirmation, cell-based, NIH3T3, luminescence, dose retest (AID 2382); type: functional;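 note: NIH3T3 fibroblasts with HSF1-driven luciferase reporter stressed by proteasome inhibitor MG132; luminescence from HSF1-driven luciferase expression after 8 hours of MG132 stress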
T2 sequence (P38532 whole entry): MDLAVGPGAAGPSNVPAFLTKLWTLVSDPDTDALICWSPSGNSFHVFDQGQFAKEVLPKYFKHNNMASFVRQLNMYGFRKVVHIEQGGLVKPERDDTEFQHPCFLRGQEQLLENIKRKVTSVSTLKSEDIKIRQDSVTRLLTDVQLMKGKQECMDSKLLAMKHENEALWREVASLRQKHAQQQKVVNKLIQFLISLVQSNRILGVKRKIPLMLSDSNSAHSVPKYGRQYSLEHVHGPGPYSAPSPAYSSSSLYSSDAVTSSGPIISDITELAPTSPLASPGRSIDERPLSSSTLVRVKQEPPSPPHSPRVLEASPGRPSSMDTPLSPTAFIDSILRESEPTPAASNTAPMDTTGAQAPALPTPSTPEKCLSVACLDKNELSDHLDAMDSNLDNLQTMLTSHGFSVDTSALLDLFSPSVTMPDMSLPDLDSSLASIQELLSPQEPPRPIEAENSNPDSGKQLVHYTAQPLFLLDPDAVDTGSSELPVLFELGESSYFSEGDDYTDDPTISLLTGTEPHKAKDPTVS

Cytochrome P450 2D6 = Cytochrome P450 2D6 (Homo sapiens, UniProt P10635);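 note: CYP2D6 member of a cytochrome P450 panel assay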
Cytochrome P450 2C9 = Cytochrome P450 2C9 (Homo sapiens, UniProt P11712)
Cytochrome P450 2C19 = Cytochrome P450 2C19 (Homo sapiens, UniProt P33261); experiment: Cytochrome panel assay with activity outcomes. Panel member name: p450-cyp2c19 Compounds with AC50 equal or less than 10 uM are considered active; type: functional; details: read-out: AC50
Protein RecA = biological target: T3, Protein RecA (Mycobacterium tuberculosis, UniProt P9WHJ3); experiment: Fluorescence Cell-Free Homogeneous Dose Retest to Identify Inhibitors of RecA-Intein Splicing Activity. [Related pubchem assays (depositor defined):AID2097, AID2223, AID489010, AID492950]; type: functional
T3 sequence (P9WHJ3 whole entry): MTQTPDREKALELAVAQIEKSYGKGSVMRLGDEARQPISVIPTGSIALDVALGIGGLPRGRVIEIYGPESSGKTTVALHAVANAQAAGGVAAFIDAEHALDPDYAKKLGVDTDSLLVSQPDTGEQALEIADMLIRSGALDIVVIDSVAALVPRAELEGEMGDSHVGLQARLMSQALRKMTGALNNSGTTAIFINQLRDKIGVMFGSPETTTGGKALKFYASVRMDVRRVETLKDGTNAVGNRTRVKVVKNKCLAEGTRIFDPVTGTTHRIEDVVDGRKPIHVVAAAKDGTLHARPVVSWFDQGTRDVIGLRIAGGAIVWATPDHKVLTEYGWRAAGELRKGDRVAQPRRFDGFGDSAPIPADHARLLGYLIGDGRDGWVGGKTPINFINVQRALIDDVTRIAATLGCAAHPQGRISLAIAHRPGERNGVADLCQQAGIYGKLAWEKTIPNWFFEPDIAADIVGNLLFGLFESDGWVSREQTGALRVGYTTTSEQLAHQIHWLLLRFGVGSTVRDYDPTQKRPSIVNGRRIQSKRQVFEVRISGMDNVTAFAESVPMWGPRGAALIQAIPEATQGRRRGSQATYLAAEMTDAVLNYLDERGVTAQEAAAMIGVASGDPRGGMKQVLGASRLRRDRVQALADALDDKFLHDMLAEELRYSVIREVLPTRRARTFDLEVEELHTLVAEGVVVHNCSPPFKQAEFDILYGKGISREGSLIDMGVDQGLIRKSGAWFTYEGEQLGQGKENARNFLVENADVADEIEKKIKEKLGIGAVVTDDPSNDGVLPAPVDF

Leucine aminopeptidase = biological target: T4, Leucine aminopeptidase (Plasmodium falciparum 3D7, UniProt Q8IL11); experiment: P. falciparum M17LAP inhibitors, primary screen, biochemical, fluorogenic H-Leu-NHMec substrate, 1536-well (AID 1619); type: functional
T4 sequence (Q8IL11 whole entry): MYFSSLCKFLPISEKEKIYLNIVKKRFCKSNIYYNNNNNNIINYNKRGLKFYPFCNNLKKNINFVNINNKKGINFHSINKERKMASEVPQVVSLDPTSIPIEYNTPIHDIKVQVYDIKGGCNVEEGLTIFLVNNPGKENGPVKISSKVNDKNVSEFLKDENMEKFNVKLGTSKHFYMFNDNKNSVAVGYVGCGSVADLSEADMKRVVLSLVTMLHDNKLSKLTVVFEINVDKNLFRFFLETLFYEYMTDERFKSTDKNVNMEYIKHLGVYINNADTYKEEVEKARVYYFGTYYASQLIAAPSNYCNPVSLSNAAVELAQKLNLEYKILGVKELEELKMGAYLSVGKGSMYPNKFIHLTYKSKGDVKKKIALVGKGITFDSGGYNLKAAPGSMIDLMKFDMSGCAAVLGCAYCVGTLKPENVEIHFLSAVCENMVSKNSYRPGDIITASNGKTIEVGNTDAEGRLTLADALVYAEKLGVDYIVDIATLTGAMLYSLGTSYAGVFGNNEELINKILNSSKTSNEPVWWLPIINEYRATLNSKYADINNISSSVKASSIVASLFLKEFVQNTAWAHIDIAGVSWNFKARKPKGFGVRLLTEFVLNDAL

[3] = biological target: T5, Replicative DNA helicase DnaB (Mycobacterium tuberculosis, UniProt P9WMR3); experiment: DnaB intein splicing inhibitors, dose response, biochemical, cell-free fluorescence (AID 449749); type: functional
T5 sequence (P9WMR3 whole entry): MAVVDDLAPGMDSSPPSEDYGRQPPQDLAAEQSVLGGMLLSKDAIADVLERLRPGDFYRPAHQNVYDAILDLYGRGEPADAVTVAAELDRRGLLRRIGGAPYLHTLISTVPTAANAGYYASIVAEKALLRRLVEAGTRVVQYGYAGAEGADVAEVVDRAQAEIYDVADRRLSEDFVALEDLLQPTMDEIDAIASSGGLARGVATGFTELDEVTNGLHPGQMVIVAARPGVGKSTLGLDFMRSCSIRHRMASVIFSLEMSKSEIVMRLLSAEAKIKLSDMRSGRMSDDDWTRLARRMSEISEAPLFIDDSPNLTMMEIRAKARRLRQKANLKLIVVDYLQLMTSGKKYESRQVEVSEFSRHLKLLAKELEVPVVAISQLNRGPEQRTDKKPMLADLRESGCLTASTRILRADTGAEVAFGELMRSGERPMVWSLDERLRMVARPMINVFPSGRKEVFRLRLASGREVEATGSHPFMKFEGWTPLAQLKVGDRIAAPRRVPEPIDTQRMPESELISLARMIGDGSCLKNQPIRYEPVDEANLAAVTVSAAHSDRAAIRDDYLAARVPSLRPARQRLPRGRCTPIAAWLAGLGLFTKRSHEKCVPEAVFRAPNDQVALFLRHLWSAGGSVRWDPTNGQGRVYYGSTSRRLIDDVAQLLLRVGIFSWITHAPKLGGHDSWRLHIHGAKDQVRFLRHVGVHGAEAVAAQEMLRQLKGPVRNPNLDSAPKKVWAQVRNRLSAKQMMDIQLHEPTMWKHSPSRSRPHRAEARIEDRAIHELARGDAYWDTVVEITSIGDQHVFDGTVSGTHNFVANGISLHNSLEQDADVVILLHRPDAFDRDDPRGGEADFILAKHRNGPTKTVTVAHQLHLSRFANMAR

[4] = biological target: T6, Corticotropin-releasing factor receptor 2/Corticotropin-releasing factor-binding protein (Homo sapiens, UniProt P24387+Q13324); experiment: activators of CRF receptor 2 with binding protein – uHTS hits, confirmation (AID 602473); type: functional; details: read-out: EC50_Mean
T6 sequence (Q13324 whole entry): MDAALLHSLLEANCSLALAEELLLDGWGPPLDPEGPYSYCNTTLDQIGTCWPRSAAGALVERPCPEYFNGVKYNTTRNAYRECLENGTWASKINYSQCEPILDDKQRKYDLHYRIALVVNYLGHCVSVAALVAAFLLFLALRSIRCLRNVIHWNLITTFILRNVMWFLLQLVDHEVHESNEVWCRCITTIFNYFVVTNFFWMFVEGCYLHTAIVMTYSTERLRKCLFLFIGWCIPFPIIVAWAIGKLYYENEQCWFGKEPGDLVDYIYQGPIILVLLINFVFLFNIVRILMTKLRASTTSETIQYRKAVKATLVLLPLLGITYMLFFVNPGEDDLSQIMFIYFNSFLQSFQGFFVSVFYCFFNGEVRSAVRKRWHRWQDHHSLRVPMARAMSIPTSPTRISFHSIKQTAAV
T6 sequence (P24387 whole entry): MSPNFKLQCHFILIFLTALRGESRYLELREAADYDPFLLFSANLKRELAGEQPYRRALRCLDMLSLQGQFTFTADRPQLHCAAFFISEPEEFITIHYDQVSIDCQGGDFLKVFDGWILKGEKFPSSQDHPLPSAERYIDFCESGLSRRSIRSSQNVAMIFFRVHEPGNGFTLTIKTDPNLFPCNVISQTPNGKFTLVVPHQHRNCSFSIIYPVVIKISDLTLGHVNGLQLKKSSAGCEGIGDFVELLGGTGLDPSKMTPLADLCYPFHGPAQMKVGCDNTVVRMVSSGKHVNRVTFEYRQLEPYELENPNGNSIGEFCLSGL

[5] = cytotoxicity toward DRD oncogenic fibroblasts, dose response, cell-based, non-viral oncogenic, luminescence (AID 1934); type: functional; details: Homo sapiens
BJ [6] = experiment: cytotoxicity toward BJ-TERT fibroblasts, dose response, cell-based, RAS-independent, luminescence (AID 1933); type: functional; details: Homo sapiens
BJ [7] = experiment: cells; type: functional, cell-based; details: Homo sapiens
BJ [8] = experiment: cytotoxicity toward BJ-TERT-LT-ST fibroblasts, dose response, cell-based, RAS-independent, luminescence (AID 1935); type: functional; details: Homo sapiens;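 note: BJ fibroblasts immortalized with TERT plus LT and ST oncogenes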

Sequence of Cytochrome P450 2C9 (P11712 whole entry): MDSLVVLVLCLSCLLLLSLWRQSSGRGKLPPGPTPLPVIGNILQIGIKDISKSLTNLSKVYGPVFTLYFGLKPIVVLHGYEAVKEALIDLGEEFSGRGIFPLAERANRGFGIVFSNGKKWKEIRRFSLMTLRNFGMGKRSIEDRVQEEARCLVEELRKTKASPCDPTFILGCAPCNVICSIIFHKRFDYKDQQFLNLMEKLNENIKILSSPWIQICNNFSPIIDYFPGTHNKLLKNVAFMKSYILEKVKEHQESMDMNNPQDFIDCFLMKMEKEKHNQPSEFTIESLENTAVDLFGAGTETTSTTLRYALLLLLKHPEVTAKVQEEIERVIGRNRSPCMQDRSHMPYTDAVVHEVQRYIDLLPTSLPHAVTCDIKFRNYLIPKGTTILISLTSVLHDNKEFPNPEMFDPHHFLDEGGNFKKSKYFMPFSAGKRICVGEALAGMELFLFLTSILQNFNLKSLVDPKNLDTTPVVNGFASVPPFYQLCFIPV
Sequence of Cytochrome P450 2C19 (P33261 whole entry): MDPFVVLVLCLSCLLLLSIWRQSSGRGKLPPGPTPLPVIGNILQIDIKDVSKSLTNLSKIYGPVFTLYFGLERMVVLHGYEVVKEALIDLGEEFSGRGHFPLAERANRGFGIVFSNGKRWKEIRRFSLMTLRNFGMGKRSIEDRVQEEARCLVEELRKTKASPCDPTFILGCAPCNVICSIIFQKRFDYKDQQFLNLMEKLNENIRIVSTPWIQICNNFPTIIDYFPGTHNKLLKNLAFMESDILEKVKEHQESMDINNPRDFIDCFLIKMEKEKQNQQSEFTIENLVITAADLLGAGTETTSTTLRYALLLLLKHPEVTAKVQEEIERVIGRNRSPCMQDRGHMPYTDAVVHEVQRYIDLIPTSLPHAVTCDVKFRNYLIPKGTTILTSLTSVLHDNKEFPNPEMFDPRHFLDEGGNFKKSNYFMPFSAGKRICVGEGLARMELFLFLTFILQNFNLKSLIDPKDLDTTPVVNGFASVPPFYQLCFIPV
Sequence of Paired box protein Pax-8 (Q06710 whole entry): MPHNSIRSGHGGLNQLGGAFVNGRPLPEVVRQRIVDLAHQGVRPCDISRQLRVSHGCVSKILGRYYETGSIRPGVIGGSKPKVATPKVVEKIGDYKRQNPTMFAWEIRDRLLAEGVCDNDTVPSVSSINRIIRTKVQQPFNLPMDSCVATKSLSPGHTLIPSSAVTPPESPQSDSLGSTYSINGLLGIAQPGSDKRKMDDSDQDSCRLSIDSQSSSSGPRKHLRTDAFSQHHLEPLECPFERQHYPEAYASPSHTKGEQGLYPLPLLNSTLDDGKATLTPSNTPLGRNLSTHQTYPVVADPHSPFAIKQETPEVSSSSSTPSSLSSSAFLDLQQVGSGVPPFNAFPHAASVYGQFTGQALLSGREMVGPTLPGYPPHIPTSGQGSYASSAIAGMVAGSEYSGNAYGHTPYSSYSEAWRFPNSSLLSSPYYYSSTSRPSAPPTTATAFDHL
Sequence of Cytochrome P450 2D6 (P10635 whole entry): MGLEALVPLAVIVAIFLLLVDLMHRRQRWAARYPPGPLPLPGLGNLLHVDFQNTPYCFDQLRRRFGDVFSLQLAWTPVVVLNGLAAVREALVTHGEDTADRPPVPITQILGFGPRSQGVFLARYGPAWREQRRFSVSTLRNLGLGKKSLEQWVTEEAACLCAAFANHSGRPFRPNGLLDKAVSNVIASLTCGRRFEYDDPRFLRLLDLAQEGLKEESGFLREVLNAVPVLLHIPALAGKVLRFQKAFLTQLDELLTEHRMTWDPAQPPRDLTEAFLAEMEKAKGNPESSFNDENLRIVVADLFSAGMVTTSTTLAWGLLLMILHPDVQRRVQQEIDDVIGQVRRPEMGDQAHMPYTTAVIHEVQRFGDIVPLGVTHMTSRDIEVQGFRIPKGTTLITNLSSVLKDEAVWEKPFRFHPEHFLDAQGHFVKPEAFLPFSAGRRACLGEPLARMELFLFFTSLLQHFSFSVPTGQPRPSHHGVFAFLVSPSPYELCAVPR

## Cc1cc(C(C)(C)C)cc(C)c1C[n+]1c2n(c3ccc(C(F)(F)F)cc31)CCCCC2
[1]
  AC50: 7.55 µM (active)
INS1
  AC50: 3.43 µM (active)
Paired box protein Pax-8
  AC50: 4.37 µM (active)

## CC1(C)Cc2c(sc(NC(=O)c3ccc4ncsc4c3)c2C(N)=O)C(C)(C)N1
[1]
  AC50: 10.1 µM (active)
[2]
  EC50: > 195 µM (not active)

## Cc1c(C)n(C)c2ccc(C(=O)Nc3cccc4ccccc34)cc12
Cytochrome P450 2D6
  AC50: 11.2 µM (inconclusive)
Cytochrome P450 2C9
  AC50: inconclusive

## CCOC(=O)C1=NOC(CNC(=O)C2=NOC(CNC(=O)c3c(-c4ccccc4Cl)noc3C)C2)C1 (stereo unspecified)
Cytochrome P450 2C19
  AC50: 20 µM (inconclusive)
Cytochrome P450 2C9
  AC50: inconclusive

## COc1ccc(CNC(=O)C2CC(c3cccc([N+](=O)[O-])c3)=NO2)cc1 (stereo unspecified)
Cytochrome P450 2C9
  AC50: inconclusive

## CCOc1ccc(-n2c(O)nnc2SCC(=O)Nc2ccccc2C)cc1
Cytochrome P450 2C9
  AC50: inconclusive

## CCc1cccc(NC(=O)CSCc2cc(O)[nH]n2)c1
Protein RecA
  EC50: 2.37 µM (active)
Leucine aminopeptidase
  IC50: 25.9 µM (active)
[3]
  AC50: 3.37 µM (active)

## C=CCSc1nc(NC)c2sccc2n1
Cytochrome P450 2C9
  AC50: inconclusive

## Cc1cc2c(C(F)(F)F)cc(=O)oc2c2c1NCCC2
Cytochrome P450 2C19
  AC50: 1.26 µM (inconclusive)
[4]
  EC50: 1.12 µM (active)
Cytochrome P450 2C9
  AC50: inconclusive

## COc1ccccc1CNC(=O)C1CCN(S(=O)(=O)N2CC(C)CC(C)C2)CC1 (stereo unspecified)
Cytochrome P450 2C19
  AC50: 39.8 µM (inconclusive)
Cytochrome P450 2C9
  AC50: inconclusive

## COc1cc2c(c(OC)c1OC)-c1ccc(OC)c(=O)cc1C(NC(C)=O)CC2 (stereo unspecified)
[1]
  AC50: 0.056 µM (active)
Paired box protein Pax-8
  AC50: < 0.26 µM (active)
[5]
  EC50: 0.351 µM (active)
BJ [6]
  EC50: 0.348 µM (active)
BJ [7]
  EC50: 0.627 µM (inconclusive)
BJ [8]
  EC50: 0.249 µM (active)
